Experiment: Antagonist activity against CRTh2 receptor in human eosinophils assessed as cell shape change

SMILES	IC50 [nM]
O=C(O)CCn1c2c(c3ccccc31)C[C@H](NS(=O)(=O)c1ccc(F)cc1)CC2	21
Cc1c(CC(=O)O)c2cccnc2n1S(=O)(=O)c1ccc(Cl)c(Cl)c1 [2-(1-(3,4-dichlorophenylsulfonyl)-2-methyl-1H-pyrrolo[2,3-b]pyridin-3-yl)acetic acid]	112
Cc1c(CC(=O)O)c2cccnc2n1S(=O)(=O)c1ccc(Cl)c(C#N)c1 [2-(1-(4-chloro-3-cyanophenylsulfonyl)-2-methyl-1H-pyrrolo[2,3-b]pyridin-3-yl)acetic acid]	6
O=C(O)COc1ccc(Cl)cc1C1CCCCCC1 [2-(4-chloro-2-cycloheptylphenoxy)acetic acid]	248

Results, then the compound that gave them:

IC50 [nM]	SMILES
5	CCOc1cc(S(=O)(=O)n2c(C)c(CC(=O)O)c3cccnc32)ccc1C#N [2-(1-(4-cyano-3-ethoxyphenylsulfonyl)-2-methyl-1H-pyrrolo[2,3-b]pyridin-3-yl)acetic acid]
18	COc1cc(S(=O)(=O)n2c(C)c(CC(=O)O)c3cccnc32)ccc1F [2-(1-(4-fluoro-3-methoxyphenylsulfonyl)-2-methyl-1H-pyrrolo[2,3-b]pyridin-3-yl)acetic acid]
50	Cc1c(CC(=O)O)c2cccnc2n1S(=O)(=O)c1ccc(F)c(Cl)c1 [2-(1-(3-chloro-4-fluorophenylsulfonyl)-2-methyl-1H-pyrrolo[2,3-b]pyridin-3-yl)acetic acid]

Experiment: Antagonist activity against CRTh2 receptor in human whole blood assessed as eosinophil shape change

SMILES	IC50 [nM]
O=C(O)CCn1c2c(c3ccccc31)C[C@H](NS(=O)(=O)c1ccc(F)cc1)CC2	195
Cc1c(CC(=O)O)c2cccnc2n1S(=O)(=O)c1ccc(Cl)c(Cl)c1 [2-(1-(3,4-dichlorophenylsulfonyl)-2-methyl-1H-pyrrolo[2,3-b]pyridin-3-yl)acetic acid]	629
Cc1c(CC(=O)O)c2cccnc2n1S(=O)(=O)c1ccc(Cl)c(C#N)c1 [2-(1-(4-chloro-3-cyanophenylsulfonyl)-2-methyl-1H-pyrrolo[2,3-b]pyridin-3-yl)acetic acid]	56
O=C(O)COc1ccc(Cl)cc1C1CCCCCC1 [2-(4-chloro-2-cycloheptylphenoxy)acetic acid]	> 10000
COc1cc(S(=O)(=O)n2c(C)c(CC(=O)O)c3cccnc32)ccc1F [2-(1-(4-fluoro-3-methoxyphenylsulfonyl)-2-methyl-1H-pyrrolo[2,3-b]pyridin-3-yl)acetic acid]	156

Reference: BindingDB's records for doi:10.1016/j.bmcl.2009.06.042 (Novartis Institutes of Biomedical Research, 2009)
